In patent US8178571B2, “Unsubstituted and substituted 4-benzyl-1,3-dihydro-imidazole-2-thiones acting as specific or selective alpha2 adrenergic agonists and methods for using the same” (Allergan, Inc., priority 2004, dated 2012):

What was measured:
Assay type in all cases: cell-based
[1] = target: T1, alpha2A adrenergic receptor (Homo sapiens, UniProt P08913); assay: Receptor Selection and Amplification Technology (RSAT) assay, alpha2A; details: NIH-3T3 cells, ratio of maximal effect to that of standard full agonist brimonidine (UK14304), NA = not active at concentrations less than 10 micromolar
T1 construct: expressed in transfected cells; host or cells: NIH-3T3 cells
T1 sequence (P08913 1-465): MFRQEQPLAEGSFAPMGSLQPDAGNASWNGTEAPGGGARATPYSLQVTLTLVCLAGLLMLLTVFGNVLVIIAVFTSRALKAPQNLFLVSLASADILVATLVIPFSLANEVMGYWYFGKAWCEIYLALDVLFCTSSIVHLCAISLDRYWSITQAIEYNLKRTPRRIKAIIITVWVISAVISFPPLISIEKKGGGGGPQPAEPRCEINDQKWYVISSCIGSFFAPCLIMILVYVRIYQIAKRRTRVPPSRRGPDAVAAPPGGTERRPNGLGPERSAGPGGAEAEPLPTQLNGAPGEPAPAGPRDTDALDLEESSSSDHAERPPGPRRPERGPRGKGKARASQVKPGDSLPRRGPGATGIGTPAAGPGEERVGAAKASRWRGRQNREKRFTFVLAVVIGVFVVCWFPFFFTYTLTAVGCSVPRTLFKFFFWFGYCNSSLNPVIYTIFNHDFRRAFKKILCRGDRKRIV
Text: (§1) The imidazole-2-thione compounds of Formula 1 and the novel compounds 1 through 5 are used in accordance with the present invention as agonists of alpha2 adrenergic receptors. Some compounds of Formula 1 may act as specific or selective agonists of alpha2B and/or to alpha2C adrenergic receptors, in preference over alpha2A adrenergic receptors. […] The specific or selective activity of the compounds of Formula 1 in general and of the novel compounds of the invention can be tested in an assay titled Receptor Selection and Amplification technology (RSAT) assay, which is described in the publication by Messier et. Al., 1995, Pharmacol. Toxicol. 76, pp. 308-311 (incorporated herein by reference) and is also described below. […]
(§2) The RSAT assay measures a receptor-mediated loss of contact inhibition that results in selective proliferation of receptor-containing cells in a mixed population of confluent cells. The increase in cell number is assessed with an appropriate transfected marker gene such as beta-galactosidase, the activity of which can be easily measured in a 96-well format. […]
(§3) NIH-3T3 cells are plated at a density of 2×10^6 cells in 15 cm dishes and maintained in Dulbecco's modified Eagle's medium supplemented with 10% calf serum. […] The absorbance is a measure of enzyme activity, which depends on cell number and reflects a receptor-mediated cell proliferation. […]

[2] = target: T2, alpha2B adrenergic receptor (Homo sapiens, UniProt P18089); assay: Receptor Selection and Amplification Technology (RSAT) assay, alpha2B; details: for Intrinsic Activity Alpha 2B: RSAT, NIH-3T3 cells, ratio of maximal effect to that of standard full agonist brimonidine (UK14304), NA = not active at concentrations less than 10 micromolar; for Specificity or selectivity for alpha2B (and/or alpha2C) over alpha2A adrenergic receptors: statement in words, RSAT assay
T2 construct: expressed in transfected cells; host or cells: NIH-3T3 cells
T2 sequence (P18089 1-450): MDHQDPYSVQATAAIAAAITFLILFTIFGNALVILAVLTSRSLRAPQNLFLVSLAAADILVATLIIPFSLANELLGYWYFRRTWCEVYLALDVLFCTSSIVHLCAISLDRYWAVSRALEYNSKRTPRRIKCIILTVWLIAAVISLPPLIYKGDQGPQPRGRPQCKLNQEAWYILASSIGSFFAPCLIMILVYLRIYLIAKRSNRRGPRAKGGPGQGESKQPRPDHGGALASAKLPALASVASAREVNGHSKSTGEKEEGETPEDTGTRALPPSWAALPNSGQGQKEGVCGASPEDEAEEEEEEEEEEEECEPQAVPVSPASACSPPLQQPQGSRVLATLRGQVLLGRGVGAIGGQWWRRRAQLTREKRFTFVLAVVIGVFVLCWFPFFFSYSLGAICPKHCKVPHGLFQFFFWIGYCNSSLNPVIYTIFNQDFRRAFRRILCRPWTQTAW
Text: The imidazole-2-thione compounds of Formula 1 and the novel compounds 1 through 5 are used in accordance with the present invention as agonists of alpha2 adrenergic receptors. Some compounds of Formula 1 may act as specific or selective agonists of alpha2B and/or to alpha2C adrenergic receptors, in preference over alpha2A adrenergic receptors. […] The specific or selective activity of the compounds of Formula 1 in general and of the novel compounds of the invention can be tested in an assay titled Receptor Selection and Amplification technology (RSAT) assay, which is described in the publication by Messier et. Al., 1995, Pharmacol. Toxicol. 76, pp. 308-311 (incorporated herein by reference) and is also described below. Another reference pertinent to this assay is Conklin et al. (1993) Nature 363:274-6, Receptor Selection and Amplification Technology (RSAT) assay, also incorporated herein by reference.
The RSAT assay measures a receptor-mediated loss of contact inhibition that results in selective proliferation of receptor-containing cells in a mixed population of confluent cells. The increase in cell number is assessed with an appropriate transfected marker gene such as beta-galactosidase, the activity of which can be easily measured in a 96-well format. Receptors that activate the G protein, Gq, elicit this response. Alpha2 receptors, which normally couple to Gi, activate the RSAT response when coexpressed with a hybrid Gq protein that has a Gi receptor recognition domain, called Gq/i5.
NIH-3T3 cells are plated at a density of 2×10^6 cells in 15 cm dishes and maintained in Dulbecco's modified Eagle's medium supplemented with 10% calf serum. One day later, cells are cotransfected by calcium phosphate precipitation with mammalian expression plasmids encoding p-SV-beta-galactosidase (5-10 μg), receptor (1-2 μg) and G protein (1-2 μg). 40 μg salmon sperm DNA may also be included in the transfection mixture. Fresh media is added on the following day and 1-2 days later, cells are harvested and frozen in 50 assay aliquots. Cells are thawed and 100 μl added to 100 μl aliquots of various concentrations of drugs in triplicate in 96-well dishes. Incubations continue 72-96 hr at 37° C. After washing with phosphate-buffered saline, beta-galactosidase enzyme activity is determined by adding 200 μl of the chromogenic substrate (consisting of 3.5 mM o-nitrophenyl-beta-D-galactopyranoside and 0.5% nonidet P-40 in phosphate buffered saline), incubating overnight at 30° C. and measuring optical density at 420 nm. The absorbance is a measure of enzyme activity, which depends on cell number and reflects a receptor-mediated cell proliferation. The efficacy or intrinsic activity is calculated as a ratio of the maximal effect of the drug to the maximal effect of a standard full agonist for each receptor subtype. Brimonidine, also called UK14304, the chemical structure of which is shown below, is used as the standard agonist for the alpha2A, alpha2B and alpha2C receptors.

[3] = target: T3, alpha2C adrenergic receptor (Homo sapiens, UniProt P18825); assay: Receptor Selection and Amplification Technology (RSAT) assay, alpha2C; details: NIH-3T3 cells, ratio of maximal effect to that of standard full agonist brimonidine (UK14304), NA = not active at concentrations less than 10 micromolar
T3 construct: expressed in transfected cells; host or cells: NIH-3T3 cells
T3 sequence (P18825 1-462): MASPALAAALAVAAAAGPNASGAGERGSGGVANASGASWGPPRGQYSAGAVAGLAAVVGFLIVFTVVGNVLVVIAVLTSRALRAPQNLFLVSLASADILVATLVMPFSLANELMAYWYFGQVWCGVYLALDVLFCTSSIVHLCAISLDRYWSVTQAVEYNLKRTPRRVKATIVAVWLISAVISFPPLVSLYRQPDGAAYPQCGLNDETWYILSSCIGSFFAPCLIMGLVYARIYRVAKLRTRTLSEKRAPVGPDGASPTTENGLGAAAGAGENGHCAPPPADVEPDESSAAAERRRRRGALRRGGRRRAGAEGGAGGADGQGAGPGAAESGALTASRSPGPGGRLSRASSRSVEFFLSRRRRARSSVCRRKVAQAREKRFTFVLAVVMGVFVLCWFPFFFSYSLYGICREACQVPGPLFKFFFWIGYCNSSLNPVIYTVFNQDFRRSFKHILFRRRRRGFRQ
Text: as §1, §2, §3

Row | SMILES | Intrinsic Activity Alpha 2A [1] | Intrinsic Activity Alpha 2B [2] | Intrinsic Activity Alpha 2C [3] | Specificity or selectivity for alpha2B (and/or alpha2C) over alpha2A adrenergic receptors [2]
1 | S=c1[nH]cc(Cc2c(Cl)cccc2Cl)[nH]1 [Compound 1, 4-(2,6-dichloro-benzyl)-1,3-dihydro-imidazole-2-thione] | 0.74 | 1.11 | 1.18 | 
2 | Fc1c(Cl)cccc1Cc1c[nH]c(=S)[nH]1 [Compound 2, 4-(3-chloro-2-fluoro-benzyl)-1,3-dihydro-imidazole-2-thione] | 0.78 | 1.05 |  | 
3 | Fc1ccccc1Cc1c[nH]c(=S)[nH]1 [Compound 3, 4-(2-fluoro-benzyl)-1,3-dihydro-imidazole-2-thione] |  | 1.3 |  | specific agonists of alpha2B agonists in preference over alpha2A and alpha2C adrenergic receptors
4 | Fc1ccc(Cc2c[nH]c(=S)[nH]2)cc1 [Compound 4, 4-(4-fluoro-benzyl)-1,3-dihydro-imidazole-2-thione] |  | 0.92 |  | specific agonists of alpha2B agonists in preference over alpha2A and alpha2C adrenergic receptors
5 | S=c1[nH]cc(Cc2ccc(Cl)cc2Cl)[nH]1 [Compound 5, 4-(2,4-dichloro-benzyl)-1,3-dihydro-imidazole-2-thione] |  | 0.95 |  | specific agonists of alpha2B agonists in preference over alpha2A and alpha2C adrenergic receptors
6 | N#Cc1ccc(-c2ccccc2Cc2c[nH]c(=S)[nH]2)cc1 [Compound 6, 2′-(2-Thioxo-2,3-dihydro-1H-imidazol-4-ylmethyl)-biphenyl-4-carbonitrile] |  | 0.70 | 0.71 | 
